# From PMC5826973 (Frontiers in Pharmacology, 2018)
# Columns and labels:
# QGY HCC cells = assay: MTT-based cell proliferation assay, QGY; parameters: species or system human
# Procedure: (§1) Human HCC cells SK-HEP1 and QGY; breast cancer cells HCC1954, BT474, and MDA-MB468; ovarian cancer cells SKOV3; and prostate cancer cells PC3 and LNCaP were purchased from the Cell Bank of Chinese Academy of Sciences (Shanghai, China), and cultured in T75 flasks with complete DMEM or RPMI 1640 medium (GIBCO, Invitrogen, Gaithersburg, CA, United States) supplemented with 10% FBS (Hyclone, New Zealand), and 1% penicillin/streptomycin (Solarbio, Beijing, China) at 37°C in a humidified atmosphere containing 5% CO2.
# (§2) Cell proliferation was determined using methylthiazolyl diphenyl-tetrazolium bromide assay (MTT; Sigma–Aldrich). The cells were seeded onto 96-well plates in a total volume of 150 μl at a density of 3.5 × 10^4 cells/well. […] To avoid the effect of the solvent, the concentration of DMSO was less than 0.1% (v/v) in all experiments. After incubation at 37°C for 48 h, 10 μl of MTT solution (5 mg/ml) was added and continued to incubate for 4 h. Following removal of medium containing MTT, 200 μl of DMSO was added to dissolve the formazan crystals formed by live cells. Solution absorbance was measured at 490 nm with an absorbance microplate reader (BioTek, Winooski, VT, United States). The assay was repeated six times. The IC50 value was determined from plot of % viability against the dose of compounds added.
# SK-HEP1 HCC cells = assay: MTT-based cell proliferation assay, SK-HEP1; parameters: species or system human
# Procedure: as §1, §2
# CyPJ = target: T1, CyPJ (Homo sapiens, UniProt Q9H2H8); assay: Surface plasmon resonance (SPR) binding assay; settings: Biacore 3000, recombinant human CyPJ immobilized on CM5 chip, 20°C, compounds 0.3–10 μM
# T1 construct: made in house
# T1 sequence (Q9H2H8 1-161): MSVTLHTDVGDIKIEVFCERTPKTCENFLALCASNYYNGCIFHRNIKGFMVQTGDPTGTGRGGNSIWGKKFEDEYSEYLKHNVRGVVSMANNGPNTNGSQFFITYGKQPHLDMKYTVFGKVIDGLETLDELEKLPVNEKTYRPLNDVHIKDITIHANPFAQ
# Procedure: The binding affinity of the selected compounds to CyPJ was measured by SPR with a Biacore 3000 instrument (Biacore AB Corporation, Uppsala, Sweden) as previously described ([Guo et al., 2005]; [Chen et al., 2007]). Briefly, recombinant human CyPJ protein was immobilized on an activated sensor chip via amine coupling. CyPJ protein (10 μM) was coupled to a CM5 sensor chip surface (a carboxymethylated dextran surface; CM5 chip from Biacore, Inc., Piscataway, NJ, United States) in a buffer containing 10 mM sodium acetate (pH 4.0) using standard amine coupling chemistry according to the manufacturer’s instructions. Flow cell 1 (FC-1) was used as the control surface and flow cell 2 (FC-2) contained 9000 resonance units (RU) of CyPJ (1 RU corresponds to 1 pg of protein per mm^2). The buffer stream was passed through FC-1 and FC-2 of the bi-channel at a flow rate of 40 μl/min. Compounds to be tested were purchased from SPECS (Netherlands). All chemicals were of the highest purity available, as certified by the vendor. All compounds were stocked in 100% dimethylsulfoxide at 10 mM and diluted at graded concentrations (0.3–10 μM) with HBS-EP buffer (0.01 M HEPES buffer, pH 7.4, containing 0.15 M NaCl, 3.4 mM EDTA, and 0.005% surfactant P20) containing 1% dimethylsulfoxide. The temperature of the instrument was set to 20°C, and the flow rate was set to 40 μl/min. Each compound (50 μl) was injected sequentially. NaOH (50 mM) was used to regenerate the surface of the CM5 chip. The 1:1 Langmuir binding model was used to determine the equilibrium dissociation constant (KD). For fast interactions, the steady-state model was used to determine KD values. All experiments were carried out in triplicate.
# CyPJ PPIase = target: T2, CyPJ PPIase (Homo sapiens, UniProt Q9H2H8); assay: α-chymotrypsin-coupled PPIase assay; assay type: biochemical; settings: for Compound IC50 for PPIase: CyPJ PPIase, substrate Suc-AAPF-pNA, 8°C, – = no inhibition detectable; for IC50: read-out: Compound IC50 for PPIase
# T2 construct: made in house
# T2 sequence (Q9H2H8 1-161): T1 sequence (Q9H2H8 1-161)
# Procedure: We used an α-chymotrypsin-coupled PPIase assay, where the substrate succinyl-Ala-Ala-Pro-Phe-p-nitroanilide (Suc-AAPF-pNA) is first converted to the trans conformation by PPIase, and can then be digested by α-chymotrypsin to release chromogenic p-nitroanilide; the latter compound is then monitored with a spectrometer. Briefly, the assay was performed under 8°C in a 100 μl system. The Suc-AAPF-pNA was dissolved in the […] containing 480 mM of LiCl (working concentration: 3.0 mM). The α-chymotrypsin was dissolved in 1 mM HCl (working concentration: […]). When assayed, each test compound was diluted in 94 μl of assay buffer (50 mM HEPES, 100 mM NaCl; pH 8.0 at 0°C), and then mixed with 2 μl of CyPJ solution (5 μM). […] Three independent experiments were performed for each test compound and the respective half maximal inhibitory concentration (IC50) was calculated with OriginPro 7.5 software (OriginLab, Northampton, MA, United States).
# The inhibitory effect of each compounds was determined with a standard spectrophotometric method in chymotrypsin-coupled assays with different concentrations of peptide substrate. The rate constants for the cis–trans conversion were evaluated by fitting the data to the integrated first-order rate equation through nonlinear least-square analysis.
# [1] = test system: HCC1954 breast cancer cells; assay: Growth inhibition, HCC1954; assay type: cell-based, human
# Procedure: as §1, §2
# [2] = test system: SKOV3 ovarian cancer cells; assay: Growth inhibition, SKOV3; assay type: cell-based, human
# Procedure: as §1, §2
# [3] = test system: BT474 breast cancer cells; assay: Growth inhibition, BT474; assay type: cell-based, human
# Procedure: as §1, §2
# [4] = test system: MDA-MB-468 breast cancer cells; assay: Growth inhibition, MDA-MB-468; assay type: cell-based, human
# Procedure: as §1, §2
# [5] = test system: PC3 prostate cancer cells; assay: Growth inhibition, PC3; assay type: cell-based, human
# Procedure: as §1, §2
# [6] = test system: LNCaP prostate cancer cells; assay: Growth inhibition, LNCaP; assay type: cell-based, human
# Procedure: as §1, §2
# [7] = test system: xenograft mouse tumor model; assay: In vivo xenograft mouse tumor model; settings: xenograft mouse tumor model (unpublished data)
# [8] = Blood serum level after intraperitoneal administration; assay type: in vivo; settings: blood serum (unpublished data)
# [9] = Table 4, ZX-J-19 derivatives, 48 h
# [10] = Homo sapiens, SK-HEP1, Table 2, 48 h
SMILES,IC50 (QGY HCC cells; [9]) [µM],IC50 (SK-HEP1 HCC cells; [9]) [µM],Kd (CyPJ) [µM],other results
CCCCCCCC(=O)Nc1ccc2nc(-c3ccco3)c(-c3ccco3)nc2c1 [ZX-J-19o],98.4,17.3,–,–
O=C(Nc1ccc2nc(-c3ccccc3)c(-c3ccccc3)nc2c1)c1ccc([N+](=O)[O-])cc1 [ZX-J-19c],37.6,–,–,–
O=C(CCl)Nc1ccc2nc(-c3ccc[nH]3)c(-c3ccc[nH]3)nc2c1 [ZX-J-19v],127,140,–,–
CCCC(=O)Nc1ccc2nc(-c3ccco3)c(-c3ccco3)nc2c1 [ZX-J-19n],18,17.7,–,–
O=C(Nc1ccc2nc(-c3ccc[nH]3)c(-c3ccc[nH]3)nc2c1)c1ccc(Cl)cc1 [ZX-J-19t],42.5,46.3,–,–
CC(=O)Nc1ccc2nc(-c3ccccc3)c(-c3ccccc3)nc2c1 [ZX-J-19k],199,7.53,–,–
CC(=O)Nc1ccc2nc(-c3ccc[nH]3)c(-c3ccc[nH]3)nc2c1 [ZX-J-19u],32.7,14.2,–,–
C/C(=N/NC(=O)c1ccc(COc2ccc3c(c2)CCC3)o1)c1ccc(NC(=O)C2CCCC2)cc1 [ZX-J-11],–,–,0.0988,IC50 (CyPJ PPIase): 19.95 ± 0.025 µM
O=C(Nc1ccc2nc(-c3ccco3)c(-c3ccco3)nc2c1)c1ccccc1 [ZX-J-19r],17.3,18.8,–,–
"CCCCCCCC(=O)Nc1ccc2nc(-c3ccccc3)c(-c3ccccc3)nc2c1 [ZX-J-19j, N-(2,3-diphenylquinoxalin-6-yl)octanamide]",–,–,–,"inhibition at 20 µM ([1]; Homo sapiens): 64.2%; inhibition at 20 µM ([2]; Homo sapiens, SK-OV-3): 48.1%; IC50 (QGY HCC cells; Homo sapiens, Table 4, ZX-J-19 derivatives, 48 h): 12.5 µM; IC50 (SK-HEP1 HCC cells; Homo sapiens, SK-HEP1, Table 4, ZX-J-19 derivatives, 48 h): 6.73 µM; inhibition at 20 µM ([3]; Homo sapiens, BT-474): 84%; inhibition at 20 µM ([4]; Homo sapiens): 84.7%; inhibition at 20 µM ([5]; Homo sapiens): 84.7%; inhibition at 20 µM ([6]; Homo sapiens): 48.1%"
"O=c1[nH]cc(F)c(=O)[nH]1 [Compound 5-FU, 5-fluorouracil, reference compound]",–,–,–,"IC50 (QGY HCC cells; Homo sapiens, Table 2, 48 h): 238.53 ± 0.035 µM; IC50 (SK-HEP1 HCC cells; [10]): 177.24 ± 0.065 µM"
COc1ccc(CCNC(=O)c2ccc(C(=O)NCCc3ccc(OC)c(OC)c3)nc2)cc1OC [ZX-J-10],–,–,0.8,Compound IC50 for PPIase (CyPJ PPIase): no inhibition
O=C(Nc1ccc2nc(-c3ccco3)c(-c3ccco3)nc2c1)c1ccccc1Cl [ZX-J-19p],–,45.7,–,–
Cc1cc(NC(=O)C(=O)NCCN2CCN(C(=O)c3ccccc3F)CC2)ccc1Br [ZX-J-18],–,–,0.242,Compound IC50 for PPIase (CyPJ PPIase): no inhibition
CC(C)(C)C(=O)Nc1ccc2nc(-c3ccco3)c(-c3ccco3)nc2c1 [ZX-J-19m],82.3,76.7,–,–
O=C(Nc1ccc2nc(-c3ccccc3)c(-c3ccccc3)nc2c1)c1ccccc1 [ZX-J-19h],27.5,40.3,–,–
CN(C)C(=O)Nc1ccc2nc(-c3ccco3)c(-c3ccco3)nc2c1 [ZX-J-19],–,–,16.7,"IC50 (QGY HCC cells; Homo sapiens, Table 2, 48 h): 52.438 ± 0.019 µM; IC50 (SK-HEP1 HCC cells; [10]): 40.44 ± 0.033 µM; antitumor activity in vivo [7]: poor antitumor activity; IC50 (CyPJ PPIase): 15.949 ± 0.012 µM; time until absorbed and accumulated in blood serum [8]: ≤ 10 min; time until declined and diminished to control levels [8]: 8 h"
CCCOC(=O)c1ccc(N2C(=O)c3ccc(C(=O)OC(C)C(=O)c4ccc(C)cc4)cc3C2=O)cc1 (stereo not shown) [ZX-J-16],–,–,3.41,IC50 (CyPJ PPIase): 18.5 ± 0.727 µM
O=C(Nc1ccc2nc(-c3ccco3)c(-c3ccco3)nc2c1)c1ccc([N+](=O)[O-])cc1 [ZX-J-19q],44.3,43.6,–,–
CC(C)(C)C(=O)Nc1ccc2nc(-c3ccccc3)c(-c3ccccc3)nc2c1 [ZX-J-19b],26,21.6,–,–

# The next lines start with results.
IC50 (QGY HCC cells; [9]) [µM],IC50 (SK-HEP1 HCC cells; [9]) [µM],Kd (CyPJ) [µM],SMILES,other results
12.3,7.5,–,O=C(Nc1ccc2nc(-c3ccccc3)c(-c3ccccc3)nc2c1)c1cccc(Cl)c1 [ZX-J-19e],–
–,–,0.661,COc1cc(NC(=O)COc2ccc3ccccc3c2)ccc1NC(=O)c1cc2ccccc2o1 [ZX-J-15],Compound IC50 for PPIase (CyPJ PPIase): no inhibition
17.9,11.3,–,O=C(CCl)Nc1ccc2nc(-c3ccccc3)c(-c3ccccc3)nc2c1 [ZX-J-19d],–
–,–,14.5,CCOC(=O)c1ccc(NC(=O)c2cc(-c3ccc(C)c(C)c3)nc3ccccc23)cc1 [ZX-J-8],IC50 (CyPJ PPIase): 10.3 ± 0.442 µM
–,–,0.516,CC(C)OC(=O)c1ccc(NC(=O)c2ccc(COc3ccccc3Cl)o2)cc1 [ZX-J-13],IC50 (CyPJ PPIase): 12.63 ± 0.068 µM
–,–,0.0435,COc1cc(/C=N/NC(=O)c2cc3c(ccc4ccccc43)o2)ccc1OCc1ccccc1F [ZX-J-17],Compound IC50 for PPIase (CyPJ PPIase): no inhibition
–,–,118,CCCCOc1cccc(-c2cc(C(=O)Nc3ccc4c(c3)OCCO4)c3ccccc3n2)c1 [ZX-J-12],IC50 (CyPJ PPIase): 12.95 ± 0.054 µM
11.3,9.89,–,O=C(Nc1ccc2nc(-c3ccccc3)c(-c3ccccc3)nc2c1)c1ccc(Cl)cc1 [ZX-J-19g],–
–,–,1.29,COc1ccc(NC(=O)c2ccc(COc3ccccc3Br)o2)c(OC)c1 [ZX-J-9],IC50 (CyPJ PPIase): 8.54 ± 0.965 µM
–,40.8,–,CCC(=O)Nc1ccc2nc(-c3ccccc3)c(-c3ccccc3)nc2c1 [ZX-J-19i],–
21.4,3.51,–,CCCC(=O)Nc1ccc2nc(-c3ccccc3)c(-c3ccccc3)nc2c1 [ZX-J-19l],% Growth inhibition at 20 μM [1]: 91.258%; % Growth inhibition at 20 μM [2]: 90.919%; % Growth inhibition at 20 μM [3]: 90.963%; % Growth inhibition at 20 μM [4]: 90.849%; % Growth inhibition at 20 μM [5]: 91.039%; % Growth inhibition at 20 μM [6]: 91.038%
